For ten molecules, GI50 and TGI results are on record in PubChem BioAssay (NCI).

Experiment in all cases: inhibition of tumour cell growth, NCI panel, 48 h
Test [1] concerns HOP-92 NSCLC.
Test [2] concerns SK-MEL-2 melanoma.
Test [3] concerns SNB-75 CNS.
Test [4] deals with K-562 leukemia.
The test system of test [5] is OVCAR-4 ovarian.
For test [6], the system named is HT29 colon.
Test [7] relates to 786-0 renal.
The subject of test [8] is SK-OV-3 ovarian.
The test system of test [9] is UO-31 renal.
The subject of test [10] is SN12C renal.

Several values for one entry are separate records, joined by “and”; a condition that tells them apart may be missing. Equal entries are not always repeated.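 Values below derive from 48-hour exposures of cells grown in 96-well plates, with endpoints linearly interpolated between the two concentrations bracketing the appropriate inhibition level. At the GI50, growth is halved. The concentration for full growth arrest is given as TGI.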

Take `Cc1ccc(-c2nc(NCCOCCOCCN)nc(N3CCN(c4ccccn4)CC3)n2)cc1`: the GI50 is 4.15 µM in test [1]; 18 µM in test [2]; 13.9 µM in [3]; 9.18 µM in test [4]; 14.7 µM in test [5]; 8.99 µM in test [6]. Further, the GI50 in test [7] is 12.4 µM; in test [8], 19.1 µM; in [9], 13.3 µM; in test [10], 14 µM. Also, the TGI in [1] came out at 19 µM; in test [2] it was 35.9 µM; in [3] it was 27.4 µM; in [4], 24.6 µM; in test [5] it was 29.3 µM; in [6], 29.1 µM. Also, the TGI in test [7] amounted to 26.8 µM; in test [8], 35.6 µM; in test [9], 29.9 µM; in test [10], 29.5 µM.
Turning to `CC(C)(O)C1COC2=C1C(=O)c1ccccc1C2=O` (centres undefined), the TGI in [1] is greater than 100 µM; in [2] it was 88.6 µM; in test [3] it was 82 µM; in [4], greater than 100 µM; in test [5], greater than 100 µM; in test [6], greater than 100 µM. For the same molecule, the TGI was greater than 100 µM in test [7], greater than 100 µM in test [8], greater than 100 µM in test [9] and 77.8 µM in test [10].
As to `CCCC1C[C@H]2CCCCN2[C@H]2CCCN12` (some centres undefined), the TGI in [1] was greater than 100 µM; in [2] it was greater than 100 µM; in test [3], greater than 100 µM; in test [4], greater than 88.4 µM; in test [5], greater than 100 µM; in [6], greater than 100 µM. Further, the TGI in [7], in test [8], in test [9] and in [10] was greater than 100 µM throughout.
As for `Fc1ccccc1CN1COc2c(cc(Cl)c3cccnc23)C1`, the TGI in test [1] came to 16.8 µM; in test [2], 19.1 µM; in test [3], 14.7 µM; in [4] it was 8.41 µM; in test [5], 4.88 µM; in test [6], 20.4 µM. The TGI amounted to 21.5 µM in test [7], 19.6 µM in test [8], 17.7 µM in test [9] and 1.57 µM in [10].
Take `Cn1c(=O)c(-c2ccccc2Cl)cc2cnc(NC3CCOCC3)nc21`: the GI50 was 4.27 µM in test [1]; 6.1 µM in test [2]; 3.82 µM in test [3]; 9.36 µM in [4]; 10.4 µM in test [5]; 7.02 µM in [6]. For the same molecule, the GI50 in test [7] is 13.1 µM; in test [8], 8.89 µM; in [9] it was 6.8 µM; in test [10], 8.05 µM. The TGI was 21.6 µM in test [1]; 14.7 µM in test [2]; greater than 25 µM in test [3]; greater than 25 µM in [4]; greater than 25 µM in test [5]; greater than 25 µM in test [6]. Also, the TGI in [7] was greater than 25 µM; in [8], greater than 25 µM; in [9] it was greater than 22.4 µM; in [10], greater than 25 µM.
Consider `Cc1cc(NC(=O)NCc2ccc(N3C(N)=NC(N)=NC3(C)C)cc2)ccc1S(=O)(=O)F`, for which the GI50 is 23.2 µM in test [1]; 45 µM in test [2]; greater than 32.3 µM in [3]; 0.484 µM in test [4]; 9.31 µM in test [5]; 0.37 µM in test [6]. Moreover, the GI50 in test [7] is 5.21 µM; in test [8] it was 36.6 µM; in test [9], greater than 100 µM; in test [10] it was 0.833 µM. Moreover, the TGI in test [1], in [2], in test [3], in [4], in test [5] and in test [6] was greater than 100 µM each time. The TGI in [7], in [8], in test [9] and in test [10] was greater than 100 µM in each case.
For the molecule `CC1NOC(=O)C1N=Nc1cccc(Cl)c1` (centres undefined), the TGI in [1] was greater than 100 µM; in test [2], 47.4 µM; in test [3] it was 92.2 µM; in test [4], greater than 100 µM; in test [5], greater than 100 µM; in test [6], 77 µM. Also, the TGI in test [7] was greater than 100 µM; in [8], 96.1 µM; in [9], greater than 100 µM; in test [10], greater than 100 µM.
With `CN(C)CCCN1c2ccccc2Sc2ccc(C(F)(F)F)cc21`, the GI50 in test [1] is 1.04 µM; in [2], 1.79 µM; in [3], 1.32 µM; in [4], 2.03 µM; in test [5], 1.97 µM; in test [6], 1.35 µM. Also, the GI50 in [7] is 1.63 µM; in test [8], 1.53 µM; in [9] it was 1.48 µM; in test [10], 1.66 µM. The TGI in test [1] was 2.99 µM and 26.3 µM; in [2], 3.69 µM and 30.5 µM; in test [3], 3.51 µM and 26 µM and 24.8 µM; in test [4] it was 4.08 µM and 30.9 µM; in test [5] it was 5.53 µM and 28 µM; in test [6], 2.82 µM and 25.3 µM. Further, the TGI was 3.09 µM and 27.1 µM and 27.9 µM in [7]; 5.38 µM and 28.3 µM and 28.9 µM in test [9]; 3.62 µM and 32.2 µM and 29.5 µM in test [10].
`N#C/C(=C\c1ccc(O)cc1)C(N)=O`: the TGI in test [1] was greater than 100 µM; in test [2] it was greater than 100 µM; in test [3], > 94.3 µM and 54.7 µM; in test [4], greater than 100 µM; in [5], greater than 100 µM; in [6], greater than 100 µM. In addition, the TGI in test [7], in test [8], in test [9] and in [10] was greater than 100 µM in each case. Further, the GI50 in [3] was > 49.9 µM and 12.7 µM.
On to `COc1cc2c(c(OC)c1OC)-c1cc(I)c(O)cc1[C@@H](NC(C)=O)CC2`, for which the GI50 is 0.0639 µM in [1]; 23.1 µM in test [2]; 0.0332 µM in test [3]; 0.0324 µM in test [4]; 0.105 µM in test [5]; 0.036 µM in test [6]. The GI50 in test [7] was 0.0614 µM; in test [8] it was 0.0476 µM; in test [9], 0.556 µM; in test [10] it was 0.106 µM. Further, the TGI is 10.9 µM in test [1]; greater than 100 µM in [2]; greater than 92.5 µM in test [3]; greater than 100 µM in test [4]; greater than 100 µM in test [5]; 10.7 µM in [6]. Besides, the TGI was greater than 100 µM in test [7], greater than 65.8 µM in test [8] and greater than 100 µM in test [10].
